Laboratory results published in patent US20050038022A1, “Method for treatment of cancer and compositions for use therein” (Unisearch Limited, priority 2001, published 2005).

Tests used:
Novikoff = assay: [3H]thymidine incorporation assay, Novikoff; assay type: cell-based, rat; settings: 5 days
Method: (§1) HepG2, Hep3-B, Hep1-6, SKHEP-1, PLC/PRF/5, and HTC cells were obtained from European Collection of Cell Cultures (ECACC; U.K), Novikoff was obtained from Cancer Research Centre (DKFZ) Heidelberg, Germany. Cells were cultured in MEM or DMEM supplemented with 10% FBS, 50 units/ml penicillin, 50 units/ml streptomycin, 25 μg/ml amphotericin B (Gibco, Grand Island, N.Y.) and maintained subconfluent at 37° C. in humidified incubators containing 5% CO2. Albendazole (Sigma, Australian subsidiary) was dissolved in absolute ethanol at concentrations that were 1000-fold higher than the final medium concentration.

SKHEP-1 cells = assay: Cell counts (trypan blue exclusion); assay type: cell-based, human
Method: SKHEP-1 cells (2.5×10^4) were plated in six well plates. The cell treatment procedure was as described for the thymidine assay. At the end of the treatment period (1, 3 or 5 days), cells were trypsinized and counted with a hemocytometer using the trypan blue exclusion method. In all experiments, cells treated with the medium containing 0.1% ethanol were taken as the control for albendazole treated cells. All counts were obtained in quadruplicate and each experiment was repeated at least twice.

SKHEP-1 = assay: [3H]thymidine incorporation assay, SKHEP-1; assay type: cell-based, human
Method: as §1

[1] = system: SKHEP-1 subcutaneous tumor; assay: Tumor formation in nude mice; assay type: in vivo, BALB/c Nu/Nu mice; settings: for maximum proliferation index (MPI), Ki-67: mean±s.e.m.
Method: 6 to 10 weeks old male BALB/c Nu/Nu mice (Animal Resources Center, Perth, Australia) were inoculated subcutaneously with 10^6 SKHEP-1 cells into the right flank. 24 hours after inoculation animals were randomly assigned to one of the treatment groups (n=10 per group), receiving 25, 50 or 150 mg/kg twice daily oral albendazole suspended in sesame oil for 20 days.
The control group was treated with the vehicle (sesame oil). Using vernier calipers, tumor diameter (mm) was measured on day eight and then every three days up to day 20-post tumor cell inoculation. Tumor volumes were calculated using the formula: ab^2/2 where a and b are the […] diameters in millimeters, respectively and a piece of the tumor was preserved in paraffin for immunohistochemical determination of maximum proliferation index (MPI). Here, after fixation, the specimen was processed for the detection of Ki-67 antigen with the monoclonal antibody MIB1 according to the method described by McCormick.
The animal model was chosen on the basis of SKHEP-1 being the most tumorigenic human liver cancer cell line in nude mice and previous experience with the model.

HepG2 [2] = assay: Combination with methimazole (MT), HepG2 growth; assay type: cell-based; settings: HepG2, albendazole alone 0.25, 0.1 and 0.01uM, 5 days
Method: The effect of inhibition of metabolism of albendazole on its antiproliferative activity was investigated using […] and the methimazole as an inhibitor of albendazole
5000 cells each of HepG2 and S EP1 were plated into 24 wells plates and treated for 5 days with various concentrations of albendazole alone or together with MT.

HepG2 [3] = assay: [3H]thymidine incorporation assay, HepG2; assay type: cell-based, human; settings: 5 days
Method: as §1

[4] = system: liver tumors (CRC or HCC); assay: Albendazole in patients with advanced malignancy (phase 1 trial); assay type: in vivo, human
Method: The study was single-centre, open and non-controlled. Nine patients (8 male and 1 female) with either advanced CRC and hepatic metastasis or HCC were included in this study. One patient with neuroendocrine cancer and mesothelioma was also treated on a compassionate basis. The patients aged between 38-79 years were inoperable and had failed existing chemotherapy and also, except for two, had measurable and increasing tumor markers. The majority had also already failed hepatic artery chemotherapy. The diagnosis of CRC or HCC was made by ultrasound, CT or MRI scan, confirmed by histology and by determination of CEA or AFP levels for CRC or HCC respectively. Only patients with expected survival of more than one month were enrolled into the study. The study was approved by the Human Ethics Committee for Research of SESAHS. The protocol and the aim of the study was clearly explained to each patient and informed consent obtained. The duration of this study was four weeks but was to be stopped if leukopenia (WBC<[…]) or severe hepatocellular injury (ALT or AST 2× upper limit) developed. All patients received albendazole (400 mg scored tablets, Smith Kline Beecham, Australian subsidiary) 10 mg/kg orally in two or three divided doses for a planned duration of four weeks. This is the clinical dose of albendazole employed in the treatment of parasitic diseases. Patients were evaluated every three days by clinical examination together with full blood tests to monitor tumor markers, hematopoesis, liver and kidney function toxicity. A partial response (PR) was defined as a 50% or more decrease in the value of the markers. In addition there must be no new lesions or progression of any other lesions. Stable disease was defined as a decrease of less than 50%, or an increase of less than 25% in the value of tumor markers, while progressive disease (PD) was a 25% or more increase in the value of the tumor markers or the appearance of any new lesions.

HCC cell lines = assay: [3H]thymidine incorporation, all HCC cell lines (summary); settings: 1000 nM albendazole
Method: For the study of [^3H]thymidine incorporation, adherent cells (5-10×10^4) were plated onto 24-well Corning tissue culture dishes and were exposed to culture medium (5% FBS) containing the vehicle (0.1% ethanol) or different concentrations of albendazole (10^−8 to 10^−6 M). For Novikoff, a detached rat cell line, 2500 cells were suspended in 2 ml of DMEM (5% FBS) and kept under the same condition as for attached cells. Media were replaced with fresh media on alternate days. At the end of the treatment period (5 days), cell cultures were assayed for thymidine incorporation by the addition of 0.5 μCi of [^3H]thymidine (60 Ci/mmol. ICN Biochem, Irvine, Calif.) to each well for the last 4 h of culture. The amount of radioactivity incorporated into cells was determined using a β-scintillation counter. […] For the recovery experiments, SKHEP-1 cells were treated for 1 day with different concentrations of albendazole and then either assayed for [^3H]thymidine incorporation or the medium was replaced and the cells treated with fresh medium with out the drug for a further 4 days at the end of which, [^3H] thymidine incorporation assay was performed.
[^3H]Thymidine incorporation assay was used to determine the effect of albendazole on cell proliferation in a number of human (HepG2, Hep3-B, PLC/PRF/5, SKHEP-1), rat (HTC and Novikoff) and mice (Hep1-6) HCC cell lines.

Hep1-6 = assay: [3H]thymidine incorporation assay, Hep1-6; assay type: cell-based, mice; settings: 5 days
Method: as §1

LOVO cells = assay: DNA laddering (apoptosis), LOVO; assay type: cell-based, human; settings: 1 μM, 16 hours
Excerpt: Similar results were also obtained with the human colorectal cell line LOVO.

Q: `CCCSc1ccc2nc(NC(=O)OC)[nH]c2c1` [albendazole, methyl 5-propylthio-1H-benzimidazole-2-yl carbamate] was tested. Which “[3H]thymidine incorporation” value (Novikoff; albendazole 10 nM) did it give?
A: 96.5 ± 8.8 % control

Q: And the “[3H]thymidine incorporation” value (Novikoff; albendazole 100 nM)?
A: 71.6 ± 5.9 % control

Q: What about the “[3H]thymidine incorporation” value (Novikoff; albendazole 500 nM) of the same compound?
A: 29.2 ± 3.3 % control

Q: What about the “[3H]thymidine incorporation” value (Novikoff; albendazole 1000 nM) of the same compound?
A: 10.3 ± 1.8 % control

Q: What about the “number of viable cells compared to control” value (SKHEP-1 cells; SKHEP-1, 1000 nM, p<0.001) of the same compound?
A: significantly reduced in number

Q: What about the “number of viable cells” value (SKHEP-1 cells; SKHEP-1, 1, 3 or 5 days, 100, 500 or 1000 nM (FIG. 2)) of the same compound?
A: dose dependent decline in the number of cells

Q: And the inhibition at 1 µM (SKHEP-1; Homo sapiens, SK-HEP1, 120 h, SKHEP-1, 1000 nM albendazole, 5 days)?
A: 99.4%

Q: What about the “thymidine incorporation after 1 day exposure” value (SKHEP-1; SKHEP-1, 1 day, concentrations of 250 nM and over (FIG. 1a)) of the same compound?
A: profound inhibition of thymidine incorporation

Q: What about the “[3H]thymidine incorporation” value (SKHEP-1; SKHEP-1, albendazole 10 nM, 5 days) of the same compound?
A: 89.6 ± 6.1 % control

Q: What about the “[3H]thymidine incorporation” value (SKHEP-1; SKHEP-1, albendazole 100 nM, 5 days) of the same compound?
A: 63.7 ± 3.1 % control

Q: And the “[3H]thymidine incorporation” value (SKHEP-1; SKHEP-1, albendazole 500 nM, 5 days)?
A: 4.5 ± 1.1 % control

Q: And the “maximum proliferation index (MPI), Ki-67” value ([1]; 50 mg/kg dose)?
A: 22.54±1.53

Q: And the “maximum proliferation index (MPI), Ki-67” value ([1]; 150 mg/kg dose)?
A: 13.36±3.04

Q: What about the mean tumor volume ([1]; 300 mg/kg dose oral in sesame oil, 20 days post inoculation, p<0.001) of the same compound?
A: 12.0±7.8 mm^3

Q: And the tumor growth ([1]; 50 and 150 mg/kg per day oral)?
A: slightly but not significantly retarded

Q: And the growth inhibition (HepG2 [2])?
A: no growth inhibition

Q: What about the “[3H]thymidine incorporation” value (HepG2 [3]; HepG2, albendazole 10 nM) of the same compound?
A: 93.1 ± 5.6 % control

Q: What about the “[3H]thymidine incorporation” value (HepG2 [3]; HepG2, albendazole 100 nM) of the same compound?
A: 72.9 ± 6.3 % control

Q: And the “[3H]thymidine incorporation” value (HepG2 [3]; HepG2, albendazole 500 nM)?
A: 12.2 ± 2.9 % control

Q: And the “disease outcome by tumor markers” value ([4]; 10 mg/kg/day oral, planned 28 days, nine patients (FIG. 6))?
A: stabilization of the disease in three, and progression of the disease in the other two patients

Q: And the “liver and kidney function tests” value ([4]; during the course of the trial, 10 mg/kg/day oral)?
A: no significant changes

Q: And the “Comments (adverse event)” value ([4]; patient 1, HCC, 19 days treatment)?
A: neutropenia;

Q: And the “Comments (adverse event)” value ([4]; patient 2, CRC, 14 days treatment)?
A: neutropenia;

Q: And the “Comments (adverse event)” value ([4]; patient 8, CRC)?
A: neutropenia

Q: What about the “serum CEA levels” value ([4]; patient 9, for the duration of the treatment (4 weeks)) of the same compound?
A: less than 10 μg/L

Q: And the disease outcome ([4]; patient number 1 (HCC), treatment stopped on day 19)?
A: stabilization of the disease

Q: And the fatal outcome ([4]; patient number 1, after stopping albendazole, almost certainly related to therapy)?
A: died of neutropaenic sepsis

Q: What about the neutropenia ([4]; patients 1, 2 and 8, drug had to be withdrawn) of the same compound?
A: significant neutropenia developed

Q: What about the “serum CEA levels” value ([4]; patients 6, 7 and 8, 10 mg/kg/day oral) of the same compound?
A: stable CEA levels

Q: What about the thymidine incorporation (HCC cell lines) of the same compound?
A: less than 20 % of control values

Q: And the “[3H]thymidine incorporation” value (Hep1-6; Hep1-6, albendazole 10 nM)?
A: 97.7 ± 4.3 % control

Q: What about the “[3H]thymidine incorporation” value (Hep1-6; Hep1-6, albendazole 100 nM) of the same compound?
A: 79.5 ± 3.2 % control

Q: What about the “[3H]thymidine incorporation” value (Hep1-6; Hep1-6, albendazole 500 nM) of the same compound?
A: 28.1 ± 2.5 % control

Q: What about the “[3H]thymidine incorporation” value (Hep1-6; Hep1-6, albendazole 1000 nM) of the same compound?
A: 5.6 ± 0.6 % control

Q: And the “DNA laddering (apoptosis)” value (LOVO cells)?
A: clear laddering
